# Columns and labels:
# Format in all cases: cell-based
# [1] = test system: Primary human subcutaneous adipocytes; assay: Glucose uptake in human subcutaneous adipocytes, insulin resistant model
# Description: As described above, primary human subcutaneous adipocytes were differentiated for two weeks prior to treatment. To induce an insulin resistant state, cells were treated in serum free Dulbecco's Modified Eagle Medium (high glucose) and […] for 24 hours. Cells were simultaneously treated with compounds diluted in DMSO for 24 hours. As described above, after 24 hours, media was exchanged for assay buffer and the compounds were added again but in the presence of approximately 1 nM insulin. Cells were washed and lysed after 2 hours and glucose uptake was measured. […] Statistical changes in glucose uptake were determined by way ANOVA and compared to DMSO.
# [2] = test system: Primary human subcutaneous adipocytes; assay: Glucose uptake in human subcutaneous adipocytes, insulin sensitive model; conditions: for insulin-mediated glucose uptake: insulin sensitive model, compared to DMSO
# Description: Primary human subcutaneous adipocytes (Zen Bio, Research Triangle Park, N.C.) were differentiated for two weeks prior to treatment. Cells were treated with indicated compounds diluted in (dimethyl-sulfoxide) DMSO in serum free medium for 24 hours in triplicate. After 24 hours, media was exchanged for assay buffer and the compounds were added again but in the presence of approximately 1 nM insulin. Glucose uptake was initiated with the addition of a cocktail containing 2-deoxyglucose and ^3H-2-deoxyglucose and allowed to incubate for 2 hours. Cells were washed, lysed and glucose uptake was measured as counts per well. As an assay control, 100 nM of insulin was used during the 2 hours of glucose uptake. […] Statistical changes in glucose uptake were determined by way ANOVA and compared to DMSO.
# naïve CD4+ T cells = assay: Human regulatory T cell differentiation assay; conditions: 6 days
# Description: Peripheral blood mononuclear cells (PBMCs) from whole blood donated by health volunteers were separated by Ficoll-Paque gradient centrifugation and naïve CD4^+ T cells were subsequently isolated using magnet beads (EasySep™ Human Naïve CD4^+ T Cell Isolation Kit, Cambridge, Mass.). For regulatory T cell (Treg) differentiation assay, naïve CD4^+ T cells were cultured (1-10×10^4 cells) in CTS OpTmizer medium for 6 days and stimulated with 5 ng/ml TGF-β, 100 U/ml IL-2, and ImmunoCult™ Human […] T Cell Activator; Stemcell #10990) with/without our Compounds. Cell viability was determined using a viability dye (eBioscience Fixable Viability Dye eFluor 780: ThermoFisher 65-0865-14) at 1:500 dilution. The cells were gated for Treg, defined as Live, CD11c^−, CD14^−, CD19^−, CD8^−, CD4^+, CD3^+, CD25^+, FOXP3^+. Percent (%) Tregs were calculated as percentage of CD4^+, CD25^+, FOXP3^+ cells over total CD4^+ T cells. Statistical analysis was performed with GraphPad Prism Software Using One-Way ANOVA.
# Mouse myocyte = Mouse myocyte lipolysis assay; conditions: Mus musculus; 0.5 mM; read-out: Free glycerol % DMSO
# Description: Cells were obtained from ATCC and cultured in Dulbecco's Modified Eagle's medium (DMEM) containing 20% fetal bovine serum and 1% penicillin/streptomycin at 37° C. in an incubator with 5% CO2. Once the cells became confluent, they were seeded into a tissue culture treated 96 well plate. The next day, the medium containing DMEM with 2% equine serum was used to start differentiation. Once cells were fully differentiated, they were treated with indicated compounds.
# Mouse 3T3-L1 cells = assay: Mouse adipocyte lipolysis assay; conditions: Mus musculus, 3T3-L1, 24 hours, read-out: Lipolysis Free Fatty Acids % DMSO
# Description: Once the cells became confluent, they were seeded into a tissue culture treated 96 well plate. […] After 14 days of differentiation, cells were treated with compounds of interest. After 24 hours post-treatment, the cell viability was assessed using CellTiter-Glo Luminescent Cell Viability Assay from Promega, and lipolysis was determined using Lipolysis Assay Kit from ZenBio.
# Caco-2 colonocytes = assay: Human Caco-2 barrier integrity assay (TEER); conditions: 48 hours
# Description: Caco-2 colonocytes were maintained at 37° C. and 5% CO2 in Dulbecco's Modified Eagle Medium (DMEM) and supplemented with 10% FBS, 1% NEAA, 1% penicillin-streptomycin. At 70-80% confluency, cells were trypsinized and seeded in 0.4 cm^2 transwell collagen I coated membranes with supplemented DMEM in both apical and basolateral compartments. Cells were seeded at a density of 200,000 cells per well and maintained for 10 days to form a polarized barrier with a TransEpithelial Electrial Resistance (TEER) reading above 1000Ω. On the first day of the assay, initial TEER readings were taken and cytokines were added to the basolateral media (50 ng/mL TNFα, 25 ng/mL IFNγ and 10 ng/mL IL-1β) to reduce barrier integrity while compounds diluted in (dimethylsulfoxide) DMSO were added to the apical media in triplicate. After 48 hours, TEER readings were taken again and viability was measured by CellTiter 96® AQueous One Solution Cell Proliferation Assay (Promega). The percent change in TEER over the 48 hours was determined and normalized to the 0.1% DMSO control (Table 6).
# [3] = test system: Human Peripheral Blood Monocytes (PBMCs); assay: Cytokine release from human PBMCs; conditions: 100 μM, LPS, 24 hours
# Description: Human donor blood (8 mL) was collected in sodium citrate CPT tubes and centrifuged at 1,600×g for 20 minutes at room temperature. […] PBMCs samples were centrifuged at 400×g for 10 minutes at 10° C. […] PBMCs were filtered through a 70 micron mesh to remove any cellular debris. […] PBMCs in a 96-well plate were rested for 30 minutes in a 37° C., 5% CO2 incubator, then subsequently treated with 10 μl of indicated compound. After 2 hours 10 μL of LPS (O111:B4) 1 mg/mL was added to test wells. After 24 hours of incubation at 37° C., 5% CO2, 100 μL of cell supernatant was collected and transferred to a 96-well plate (non-tissue treated, flat bottom). The plate was centrifuged at 350×g for 5 minutes at room temperature, and then the clear supernatant transferred to a new 96-well plate (non-tissue treated, flat bottom). The remaining cells were tested for viability using CellTiter-Glo® Luminescent Cell Viability Assay (Promega). The supernatant was analyzed for TNFα, IL-6 and IL-1β (kit LXSAHM-03; R&D Systems), using Luminex Immunoassay Technology (MAGPIX System). Cytokine levels of LPS treated DMSO control samples were set to 100%, and compound treated samples were expressed relative to this (Table 13).
compound,measurement,setting,value
C[C@@H](O)CC(=O)O [(R) BHB],Insulin Resistant % DMSO (glucose uptake),[1]; 2 mM,+ (110%> ≤140%: +)
same,Insulin Resistant % DMSO (glucose uptake),[1]; 20 mM,= (50%> ≤110%: =)
same,Insulin Sensitive % DMSO (glucose uptake),[2]; 2 mM,++ (140%≥ ≤200%: ++)
same,Insulin Sensitive % DMSO (glucose uptake),[2]; 20 mM,++ (140%≥ ≤200%: ++)
"C[C@@H](O)CCO [(R)-1,3-Butanediol, (3R)-butane-1,3-diol]",Cell viability % DMSO,naïve CD4+ T cells; 100 uM,= (90%≥ ≤110%: =)
same,Cell viability % DMSO,naïve CD4+ T cells; 0.5 mM,= (90%≥ ≤110%: =)
same,activity at 500 µM,"naïve CD4+ T cells; Homo sapiens, CD4+ T, 144 h, 0.5 mM, read-out: Treg induction % DMSO",90 to 110%
same,Insulin Resistant % DMSO (glucose uptake),[1]; 100 μM,= (50%> ≤110%: =)
same,Insulin Resistant % DMSO (glucose uptake),[1]; 500 μM,= (50%> ≤110%: =)
same,activity at 500 µM,Mouse myocyte,70 to 90%
same,Insulin Sensitive % DMSO (glucose uptake),[2]; 100 μM,= (50%> ≤110%: =)
same,Insulin Sensitive % DMSO (glucose uptake),[2]; 500 μM,++ (140%≥ ≤200%: ++)
same,insulin-mediated glucose uptake,[2],significantly enhanced insulin-mediated glucose uptake
same,activity at 100 µM,Mouse 3T3-L1 cells; 100 μM,50 to 70%
same,activity at 500 µM,Mouse 3T3-L1 cells; 0.5 mM,50 to 70%
C[C@@H](O)CC(=O)O [(R)-BHB],insulin-mediated glucose uptake,"[1]; insulin-resistant like state, compared to DMSO",significantly enhanced insulin-mediated glucose uptake
same,insulin-mediated glucose uptake,[2],significantly enhanced insulin-mediated glucose uptake
"CC(O)CC(=O)O (stereo not drawn) [BHB, β-hydroxybutyrate]",% Change in TEER from DMSO,Caco-2 colonocytes; 200 μM + cytokines,+ (125%> ≤150%: +)
same,% Change in TEER from DMSO,Caco-2 colonocytes; 2 mM + cytokines,− (≤125%: −)
same,IL6 % DMSO control,[3],= ((=) 90%≥ <110% DMSO)
same,ILβ % DMSO control,[3],− ((−) ≥110% DMSO;)
same,TNFα % of DMSO control,[3],− ((−) ≥110% DMSO;)

# — patent publication US10953027B2, “Active agents and methods of their use for the treatment of metabolic disorders and nonalcoholic fatty liver disease” (Flagship Pioneering Innovations V, Inc., priority 2018, dated 2021)
